# Experimental data published in patent publication US10105357B2, “Indication of antibiotic drugs for preparation of cancer inhibition pharmaceutical composition” (LAUNX BIOMEDICAL CO., LTD., priority 2014, dated 2018).
# Read-outs that look alike come from different tables or passages of the source.
# Assays:
# cancer cell lines = test: Cell viability analysis (WST-1) on cancer cell lines; format: cell-based, human; conditions: drug 10 μM, 72 hours, WST-1; Table 3
# [1] = test system: HI650 (Lung Adenocarcinoma); test: Cell viability analysis, lung cancer HI650; format: cell-based, human; conditions: Homo sapiens
# [2] = test system: A549 (Lung Adenocarcinoma); test: Cell viability analysis, lung cancer A549; format: cell-based, human; conditions: Homo sapiens, A549
# [3] = test system: AGS (Gastric Adenocarcinoma); test: Cell viability analysis, gastric cancer AGS; format: cell-based, human; conditions: Homo sapiens
# [4] = test system: MKN-45 (Gastric Adenocarcinoma); test: Cell viability analysis, gastric cancer MKN-45; format: cell-based, human; conditions: Homo sapiens, MKN-45
# [5] = test system: HepG2 (Hepatocellular Carcinoma); test: Cell viability analysis, hepatic cancer HepG2; format: cell-based, human; conditions: Homo sapiens, HepG2
# [6] = test system: Hep3B (hepatocellular carcinoma); test: Cell viability analysis, hepatic cancer Hep3B; format: cell-based, human; conditions: Homo sapiens, Hep3B, 72 h, read-out: The results of antibiotic drug inhibiting cancer cell lines (cell viability analysis), Hep3B
# [7] = test system: LoVo (Colorectal Adenocarcinoma); test: Cell viability analysis, colon cancer LoVo; format: cell-based, human; conditions: Homo sapiens, LoVo
# [8] = test system: A375 (Amelanotic Melanoma); test: Cell viability analysis, skin cancer A375; format: cell-based, human; conditions: Homo sapiens
# [9] = test system: BCC (basal cell carcinoma); test: Cell viability analysis, skin cancer BCC; format: cell-based, human; conditions: Homo sapiens, 72 h, read-out: The results of antibiotic drug inhibiting cancer cell lines (cell viability analysis), BCC
# [10] = test system: HeLa (Cervix Adenocarcinoma); test: Cell viability analysis, cervical cancer HeLa; format: cell-based, human; conditions: Homo sapiens, HeLa
# [11] = test system: C-33A (Cervical carcinoma); test: Cell viability analysis, cervical cancer C-33A; format: cell-based, human; conditions: Homo sapiens, C-33-A, 72 h, read-out: The results of antibiotic drug inhibiting cancer cell lines (cell viability analysis), C-33A
# [12] = test system: PC3 (p53−) (Prostate Adenocarcinoma); test: Cell viability analysis, prostate cancer PC3; format: cell-based, human; conditions: Homo sapiens
# [13] = test system: TSGH-8301 (Urinary Bladder Carcinoma); test: Cell viability analysis, bladder cancer TSGH-8301; format: cell-based, human; conditions: Homo sapiens
# T24 = test: Cell viability analysis, bladder cancer T24; format: cell-based, human; conditions: Homo sapiens, T-24, 72 h, read-out: The results of antibiotic drug inhibiting cancer cell lines (cell viability analysis), T24
# [14] = test system: MCF7 (Mammary Gland, Adenocarcinoma); test: Cell viability analysis, breast cancer MCF7; format: cell-based, human; conditions: Homo sapiens
# [15] = test system: MDA-MB-231 (Mammary Gland, Adenocarcinoma); test: Cell viability analysis, breast cancer MDA-MB-231; format: cell-based, human; conditions: Homo sapiens, MDA-MB-231, 72 h, read-out: The results of antibiotic drug inhibiting cancer cell lines (cell viability analysis), MDA-MB231
# BxPC-3 = test: Cell viability analysis, pancreatic cancer BxPC-3; format: cell-based, human; conditions: Homo sapiens, BXPC-3, 72 h, read-out: The results of antibiotic drug inhibiting cancer cell lines (cell viability analysis), BxPC-3
# AsPC-1 = test: Cell viability analysis, pancreatic cancer AsPC-1; format: cell-based, human; conditions: Homo sapiens, ASPC1, 72 h, read-out: The results of antibiotic drug inhibiting cancer cell lines (cell viability analysis), AsPC-1
# NIH: OVCAR-3 = test: Cell viability analysis, ovarian cancer NIH: OVCAR-3; format: cell-based, human; conditions: Homo sapiens, OVCAR-3, 72 h, read-out: The results of antibiotic drug inhibiting cancer cell lines (cell viability analysis), NIH-OVCAR-3
# TOV-21G = test: Cell viability analysis, ovarian cancer TOV-21G; format: cell-based, human; conditions: Homo sapiens, TOV21G, 72 h, read-out: The results of antibiotic drug inhibiting cancer cell lines (cell viability analysis), TOV-21G
# [16] = test system: SAS (Tongue squamous cell carcinoma); test: Cell viability analysis, tongue cancer SAS; format: cell-based, human; conditions: Homo sapiens, 72 h, read-out: The results of antibiotic drug inhibiting cancer cell lines (cell viability analysis), SAS
# U-2OS = test: Cell viability analysis, osteosarcoma U-2OS; format: cell-based, human; conditions: Homo sapiens, U2OS, 72 h, read-out: The results of antibiotic drug inhibiting cancer cell lines (cell viability analysis), U2OS
# [17] = test system: 786-O (Renal adenocarcinoma); test: Cell viability analysis, renal cancer 786-O; format: cell-based, human; conditions: Homo sapiens, 786-0, 72 h, read-out: The results of antibiotic drug inhibiting cancer cell lines (cell viability analysis), 786-O
# [18] = test system: HL-60 (Acute Promyelocytic Leukemia); test: Cell viability analysis, leukemia HL-60; format: cell-based, human; conditions: Homo sapiens, HL-60; drug 10 μM, 72 hours, WST-1, OD450 nm; read-out: cell viability (survival rate), HL-60
# [19] = test system: HCT116 (p53+) (Colorectal Carcinoma)
compound,measurement,setting,value
"CCC[S+]([O-])c1ccc2[nH]c(NC(=O)OC)nc2c1 (stereo not shown) [Albendazole Oxide (Ricobendazole), Albendazole Oxide]",inhibition effect on different cancer cell lines,cancer cell lines,significant inhibition effect
same,viability at 10 µM,"[1]; NCI-H1650, 72 h, H1650, repeated experiment, read-out: The results of antibiotic drug inhibiting cancer cell lines (cell viability analysis), H1650",64.6%
same,viability at 10 µM,"[1]; NCI-H1650, drug 10 μM, 72 hours, WST-1, OD450 nm, read-out: cell viability (survival rate), H1650",59.5%
same,viability at 10 µM,"[2]; 72 h, repeated experiment, read-out: The results of antibiotic drug inhibiting cancer cell lines (cell viability analysis), A549",95.5%
same,viability at 10 µM,"[2]; drug 10 μM, 72 hours, WST-1, OD450 nm, read-out: cell viability (survival rate), A549",155%
same,viability at 10 µM,"[3]; 72 h, AGS, repeated experiment, read-out: The results of antibiotic drug inhibiting cancer cell lines (cell viability analysis), AGS",80%
same,viability at 10 µM,"[3]; drug 10 μM, 72 hours, WST-1, OD450 nm, read-out: cell viability (survival rate), AGS",34%
same,viability at 10 µM,"[4]; 72 h, repeated experiment, read-out: The results of antibiotic drug inhibiting cancer cell lines (cell viability analysis), MKN-45",74.3%
same,viability at 10 µM,"[4]; drug 10 μM, 72 hours, WST-1, OD450 nm, read-out: cell viability (survival rate), MKN-45",60.8%
same,viability at 10 µM,"[5]; 72 h, repeated experiment, read-out: The results of antibiotic drug inhibiting cancer cell lines (cell viability analysis), HepG2",92.9%
same,viability at 10 µM,"[5]; drug 10 μM, 72 hours, WST-1, OD450 nm, read-out: cell viability (survival rate), HepG2",104%
same,viability at 10 µM,[6],97.9%
same,viability at 10 µM,"[7]; 72 h, repeated experiment, read-out: The results of antibiotic drug inhibiting cancer cell lines (cell viability analysis), LoVo",88.2%
same,viability at 10 µM,"[7]; drug 10 μM, 72 hours, WST-1, OD450 nm, read-out: cell viability (survival rate), LoVo",68.9%
same,viability at 10 µM,"[8]; A-375, 72 h, A375, repeated experiment, read-out: The results of antibiotic drug inhibiting cancer cell lines (cell viability analysis), A375",66.5%
same,viability at 10 µM,"[8]; A-375, drug 10 μM, 72 hours, WST-1, OD450 nm, read-out: cell viability (survival rate), A375",92.9%
same,viability at 10 µM,[9],57.1%
same,viability at 10 µM,"[10]; 72 h, repeated experiment, read-out: The results of antibiotic drug inhibiting cancer cell lines (cell viability analysis), HeLa",49.4%
same,viability at 10 µM,"[10]; drug 10 μM, 72 hours, WST-1, OD450 nm, read-out: cell viability (survival rate), HeLa",56%
same,viability at 10 µM,[11],102%
same,viability at 10 µM,"[12]; 72 h, PC-3, repeated experiment, read-out: The results of antibiotic drug inhibiting cancer cell lines (cell viability analysis), PC-3",78.7%
same,viability at 10 µM,"[12]; drug 10 μM, 72 hours, WST-1, OD450 nm, read-out: cell viability (survival rate), PC3",60.5%
same,viability at 10 µM,"[13]; 72 h, TSGH-8301, repeated experiment, read-out: The results of antibiotic drug inhibiting cancer cell lines (cell viability analysis), TSGH-8301",63.3%
same,viability at 10 µM,"[13]; drug 10 μM, 72 hours, WST-1, OD450 nm, read-out: cell viability (survival rate), TSGH",77.7%
same,viability at 10 µM,T24,89.8%
same,viability at 10 µM,"[14]; MCF7, 72 h, MCF-7, repeated experiment, read-out: The results of antibiotic drug inhibiting cancer cell lines (cell viability analysis), MCF-7",68.3%
same,viability at 10 µM,"[14]; MCF7, drug 10 μM, 72 hours, WST-1, OD450 nm, read-out: cell viability (survival rate), MCF7",62.3%
same,viability at 10 µM,[15],81.1%
same,viability at 10 µM,BxPC-3,50.2%
same,viability at 10 µM,AsPC-1,67.6%
same,viability at 10 µM,NIH: OVCAR-3,72.1%
same,viability at 10 µM,TOV-21G,76.3%
same,viability at 10 µM,[16],92.4%
same,viability at 10 µM,U-2OS,84.8%
same,viability at 10 µM,[17],86.1%
same,viability at 10 µM,[18],103%
same,viability,[19],91.3%
